Drawing on patent US10377791B2, “Therapeutically active estratrienthiazole derivatives as inhibitors of 17 B-hydroxysteroid dehydrogenase, type 1” (FORENDO PHARMA LTD, priority 2013, dated 2019), this text covers inhibition for 14 molecules.

In assay [1] the target is T1, recombinant human 17β-HSD2 (Homo sapiens, UniProt P37059).
T1 construct: made in house; host or cells: Sd9 (Sf9) insect cells, baculovirus (Bac to Bac Expression System)
T1 sequence (P37059 1-387): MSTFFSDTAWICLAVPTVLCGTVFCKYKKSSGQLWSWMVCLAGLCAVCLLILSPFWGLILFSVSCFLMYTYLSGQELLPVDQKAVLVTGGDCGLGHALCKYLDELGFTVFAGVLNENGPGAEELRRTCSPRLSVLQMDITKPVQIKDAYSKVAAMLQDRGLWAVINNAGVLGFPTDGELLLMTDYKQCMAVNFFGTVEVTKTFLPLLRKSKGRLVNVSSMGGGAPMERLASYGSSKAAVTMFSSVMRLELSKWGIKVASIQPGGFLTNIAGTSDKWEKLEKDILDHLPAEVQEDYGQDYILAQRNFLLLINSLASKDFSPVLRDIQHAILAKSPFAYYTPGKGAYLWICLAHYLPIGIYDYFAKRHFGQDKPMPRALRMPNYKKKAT
Briefly: Inhibition of recombinant human 17β-HSD2. It is filed as biochemical. The following applies: inhibitor at 1 μM; 50 nM estradiol, 1 mM NADH, 30 min at RT; read-out: 17β-HSD2 Inhibition % at 1 μM. On the procedure: Similarly to 17β-HSD1 the Recombinant baculovirus was generated by the “Bac to Bac Expression System” (Invitrogen). Recombinant bacmid was transfected to Sd9 insect cells using “Cellfectin Reagent” (Invitrogen). 60 h later cells were harvested and supernatant were fractionated by the following protocol: • cells were dissolved into 40 ml of A-buffer (40 mM TRIS, pH8.0, 20% glycerol, 20 μM NAD, 0.4 mM PMSF, 150 mM NaCl, 0.5% dodecyl-β-maltoside+protease inhibitor cocktail) • cells were sonicated • lysate was incubated on ice for 15 min • lysate was centrifuged 5000 rpm 15 min, +4° C. • centrifugation of the supernatant 180 000 g 30 min, +4° C. • pellet was dissolved into 8 ml of A-buffer • not resuspended material was removed by centrifugation 5000 rpm 15 min, +4° C. • the clear supernatant was divided into 100 μl aliquots and were stored frozen until determination of enzymatic activity.
The amount of 17β-HSD2 was analysed by immunoblotting and total protein concentration of each extract batch was determined.
Recombinant protein (4 μg/ml) was incubated in 20 mM KH2PO4 pH 8.5 with 50 nM estradiol (including 800 000 cpm/ml of ^3H-estradiol) and 1 mM NADH for 30 min at RT, in the presence of the potential inhibitor at concentrations 1 μM or 0.1 μM. Inhibitor stock solutions were prepared in DMSO. Final concentration of DMSO was adjusted to 1% in all samples. The enzyme reaction was stopped by addition of 10% trichloroacetic acid (final concentration). Samples were centrifuged in a microtiter plate at 4000 rpm for 10 min. Supernatants were applied to reverse phase HPLC on a Waters Symmetry C18 column, equipped with a Waters Sentry Guard column. Isocratic HPLC runs were performed at RT at a flow rate of 1 ml/min in acetonitrile:water 48:52 as running solvent. Radioactivity was monitored in the eluate by a Packard Flow Scintillation Analyzer. Total radioactivity for estrone and estradiol were determined in each sample and percent conversion of estradiol to estrone was calculated according to the following formula:
(§1) [formula] Percent inhibition was calculated flowingly: % inhibition=100−% conversion

The target in assay [2] is T2, recombinant human 17β-HSD1 (Homo sapiens, UniProt P14061).
T2 construct: made in house; host or cells: Sd9 (Sf9) insect cells, baculovirus (Bac to Bac Expression System)
T2 sequence (P14061 1-328): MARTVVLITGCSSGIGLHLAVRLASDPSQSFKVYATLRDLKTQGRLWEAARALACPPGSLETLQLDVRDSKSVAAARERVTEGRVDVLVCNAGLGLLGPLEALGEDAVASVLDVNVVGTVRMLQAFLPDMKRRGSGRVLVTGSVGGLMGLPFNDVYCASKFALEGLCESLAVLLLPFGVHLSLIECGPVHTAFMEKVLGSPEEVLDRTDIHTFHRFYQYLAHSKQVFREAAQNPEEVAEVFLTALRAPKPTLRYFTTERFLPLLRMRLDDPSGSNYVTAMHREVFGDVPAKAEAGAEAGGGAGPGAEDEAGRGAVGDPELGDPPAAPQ
Put plainly: Inhibition of recombinant human 17β-HSD1. Format: biochemical. The following applies: inhibitor at 1 μM; 30 nM estrone, 1 mM NADPH, 30 min at RT; read-out: 17β-HDS1 Inhibition % at 1 μM. On the procedure: Recombinant baculovirus was generated by the “Bac to Bac Expression System” (Invitrogen). Recombinant bacmid was transfected to Sd9 insect cells using “Cellfectin Reagent” (Invitrogen). 60 h later cells were harvested; the microsomal fraction was isolated as described by Puranen, T. J., Poutanen, M. H., Peltoketo, H. E., Vihko, P. T. and Vihko, R. K. (1994) Site-directed mutagenesis of the putative active site of human 17 β-hydroxysteroid dehydrogenase type 1. Biochem. J. 304: 289-293. Aliquots were stored frozen until determination of enzymatic activity.
Recombinant protein (1 μg/ml) was incubated in 20 mM KH2PO4 pH 7.4 with 30 nM estrone (including 800 000 cpm/ml of ^3H-estrone) and 1 mM NADPH for 30 min at RT, in the presence of the potential inhibitor at concentrations 1 μM or 0.1 μM. Inhibitor stock solutions were prepared in DMSO. Final concentration of DMSO was adjusted to 1% in all samples. The enzyme reaction was stopped by addition of 10% trichloroacetic acid (final concentration). Samples were centrifuged in a microtiter plate at 4000 rpm for 10 min. Supernatants were applied to reverse phase HPLC on a Waters Symmetry C18 column, equipped with a Waters Sentry Guard column. Isocratic HPLC runs were performed at RT at a flow rate of 1 ml/min in acetonitrile:water 48:52 as running solvent. Radioactivity was monitored in the eluate by a Packard Flow Scintillation Analyzer. Total radioactivity for estrone and estradiol were determined in each sample and percent conversion of estrone to estradiol was calculated according to the following formula:
as §1

As to `Cc1cnc(NC(=O)CC[C@@H]2CC(=O)[C@@]3(C)CCC4c5cc(CN(C)C)c(O)cc5CCC4C23)s1` (stereo partly drawn) [Compound 44, 3-((13S,15R)-2-((dimethylamino)methyl)-3-hydroxy-13-methyl-17-oxo-7,8,9,11,12,13,14,15,16,17-decahydro-6H-cyclopenta[a]phenanthren-15-yl)-N-(5-methylthiazol-2-yl)propanamide], the inhibition at 1 µM is 2% in assay [1] and 91% in assay [2].

In the case of `Cc1cnc(NC(=O)CC[C@@H]2CC(=O)[C@@]3(C)CCC4c5cc(CN6CCCC6)c(O)cc5CCC4C23)s1` (stereo partly drawn) [Compound 45, 3-((13S,15R)-3-hydroxy-13-methyl-17-oxo-2-(pyrrolidin-1-ylmethyl)-7,8,9,11,12,13,14,15,16,17-decahydro-6H-cyclopenta[a]phenanthren-15-yl)-N-(5-methylthiazol-2-yl)propanamide], the inhibition at 1 µM worked out at 0% in assay [1] and 83% in assay [2].

Regarding `Cc1cnc(NC(=O)CC[C@@H]2CC(=O)[C@@]3(C)CCC4c5ccc6ocnc6c5CCC4C23)s1` (stereo partly drawn) [Compound 46, 3-((7aS,10R)-7a-methyl-8-oxo-6,7,7a,8,9,10,10a,10b,11,12-decahydro-5bH-cyclopenta[7,8]phenanthro[1,2-d]oxazol-10-yl)-N-(5-methylthiazol-2-yl)propanamide], the values for the inhibition at 1 µM in assay [1] and in assay [2] were 3% and 87%, respectively.

Take `Cc1nc2cc3c(cc2o1)CCC1C3CC[C@]2(C)C(=O)C[C@@H](CCC(=O)Nc3ncc(C)s3)C12` (stereo partly drawn) [Compound 48, 3-((3R,12aS)-8,12a-dimethyl-1-oxo-2,3,3a,3b,4,5,10b,11,12,12a-decahydro-1H-cyclopenta[7,8]phenanthro[3,2-d]oxazol-3-yl)-N-(5-methylthiazol-2-yl)propanamide]: the values for the inhibition at 1 µM in assay [1] and in assay [2] were 2% and 91%, respectively.

Take `Cc1nc2c3c(ccc2o1)C1CC[C@]2(C)C(=O)C[C@@H](CCC(=O)Nc4ncc(C)s4)C2C1CC3` (stereo partly drawn) [Compound 49, 3-((7aS,10R)-2,7a-dimethyl-8-oxo-6,7,7a,8,9,10,10a,10b,11,12-decahydro-5bH-cyclopenta[7,8]phenanthro[1,2-d]oxazol-10-yl)-N-(5-methylthiazol-2-yl)propanamide]: the inhibition at 1 µM was found to be 1% in assay [1] and 84% in assay [2].

As to `Cc1cnc(NC(=O)CC[C@@H]2CC(=O)[C@@]3(C)CCC4c5cc6[nH]c(=O)oc6cc5CCC4C23)s1` (stereo partly drawn) [Compound 50, 3-((3R,12aS)-12a-methyl-1,8-dioxo-2,3,3a,3b,4,5,8,9,10b,11,12,12a-dodecahydro-1H-cyclopenta[7,8]phenanthro[3,2-d]oxazol-3-yl)-N-(5-methylthiazol-2-yl)propanamide], the inhibition at 1 µM in assay [1] amounted to 40%; in assay [2] it was 91%.

As to `Cc1cnc(NC(=O)CC[C@@H]2CC(=O)[C@@]3(C)CCC4c5ccc6oc(=O)[nH]c6c5CCC4C23)s1` (stereo partly drawn) [Compound 51, 3-((7aS,10R)-7a-methyl-2,8-dioxo-2,5b,6,7,7a,8,9,10,10a,10b,11,12-dodecahydro-1H-cyclopenta[7,8]phenanthro[1,2-d]oxazol-10-yl)-N-(5-methylthiazol-2-yl)propanamide], the inhibition at 1 µM in assay [1] is 1%; in assay [2] it was 78%.

For `COc1cc2c(cc1I)C1CC[C@]3(C)C(=O)C[C@@H](CCC(=O)Nc4ncc(C)s4)C3C1CC2` (stereo partly drawn) [Compound 52, 3-((13S,15R)-2-iodo-3-methoxy-13-methyl-17-oxo-7,8,9,11,12,13,14,15,16,17-decahydro-6H-cyclopenta[a]phenanthren-15-yl)-N-(5-methylthiazol-2-yl)propanamide], the inhibition at 1 µM in assay [1] was found to be 1%; in assay [2], 93%.

As to `Cc1cnc(NC(=O)CC[C@@H]2CC(=O)[C@@]3(C)CCC4c5cc(I)c(O)c(I)c5CCC4C23)s1` (stereo partly drawn) [Compound 53, 3-((13S,15R)-3-hydroxy-2,4-diiodo-13-methyl-17-oxo-7,8,9,11,12,13,14,15,16,17-decahydro-6H-cyclopenta[a]phenanthren-15-yl)-N-(5-methylthiazol-2-yl)propanamide], the inhibition at 1 µM is 5% in assay [1] and 94% in assay [2].

`Cc1cnc(NC(=O)CC[C@@H]2CC(=O)[C@@]3(C)CCC4c5ccc(O)c(I)c5CCC4C23)s1` (stereo partly drawn) [Compound 54, 3-((13S,15R)-3-hydroxy-4-iodo-13-methyl-17-oxo-7,8,9,11,12,13,14,15,16,17-decahydro-6H-cyclopenta[a]phenanthren-15-yl)-N-(5-methylthiazol-2-yl)propanamide]: the inhibition at 1 µM in assay [1] came out at 4%; in assay [2], 86%.

As for `Cc1cnc(NC(=O)CC[C@@H]2CC(=O)[C@@]3(C)CCC4c5cc(I)c(O)cc5CCC4C23)s1` (stereo partly drawn) [Compound 55, 3-((13S,15R)-3-hydroxy-2-iodo-13-methyl-17-oxo-7,8,9,11,12,13,14,15,16,17-decahydro-6H-cyclopenta[a]phenanthren-15-yl)-N-(5-methylthiazol-2-yl)propanamide], the inhibition at 1 µM in assay [1] is 7%; in assay [2], 98%.

Take `Cc1cnc(NC(=O)CC[C@@H]2CC(=O)[C@@]3(C)CCC4c5cc(Br)c(O)cc5CCC4C23)s1` (stereo partly drawn) [Compound 56, 3-((13S,15R)-2-bromo-3-hydroxy-13-methyl-17-oxo-7,8,9,11,12,13,14,15,16,17-decahydro-6H-cyclopenta[a]phenanthren-15-yl)-N-(5-methylthiazol-2-yl)propanamide]: the inhibition at 1 µM in assay [1] came out at 18%; in assay [2], 93%.

For `Cc1cnc(NC(=O)CC[C@@H]2CC(=O)[C@@]3(C)CCC4c5ccc(O)c(Br)c5CCC4C23)s1` (stereo partly drawn) [Compound 57, 3-((13S,15R)-4-bromo-3-hydroxy-13-methyl-17-oxo-7,8,9,11,12,13,14,15,16,17-decahydro-6H-cyclopenta[a]phenanthren-15-yl)-N-(5-methylthiazol-2-yl)propanamide], the inhibition at 1 µM in assay [1] is 16%; in assay [2], 92%.

On to `Cc1cnc(NC(=O)CC[C@@H]2C(Br)C(=O)[C@@]3(C)CCC4c5cc(Br)c(O)c(Br)c5CCC4C23)s1` (stereo partly drawn) [Compound 59, N-(5-methylthiazol-2-yl)-3-((13S,15S)-2,4,16-tribromo-3-hydroxy-13-methyl-17-oxo-7,8,9,11,12,13,14,15,16,17-decahydro-6H-cyclopenta[a]phenanthren-15-yl)propanamide], for which the inhibition at 1 µM turned out to be 2% in assay [1] and 79% in assay [2].

By inhibition is commonly meant the share of the control response that was lost under treatment.
